From ChEMBL document CHEMBL1130472, “Potent selective thienoxazinone inhibitors of herpes proteases” (Bioorg Med Chem Lett, 1997)
pIC50: −log10 of the molar value.

What was measured:
[1] = Half life was determined; assay type: ADME; details: rat
[2] = Inhibitory concentration for peptidolytic activity against elastase
[3] = Selectivity ratio of inhibitory concentration against elastase and HSV-1
Cytomegalovirus [4] = assay: Inhibitory concentration for peptidolytic activity against cytomegalovirus (CMV) protease at 10 uM.; assay type: functional, organism-based; details: Human betaherpesvirus 5
Human alphaherpesvirus 2 [5] = assay: Inhibitory concentration for peptidolytic activity against herpes simplex type-2(HSV-2) protease at 10 uM.; assay type: functional, organism-based
[6] = molecular target: T1, Capsid scaffolding protein (Herpes simplex virus (type 1 / strain 17), UniProt P10210); assay: Inhibitory concentration for peptidolytic activity against herpes simplex type-1 (HSV-1) protease at 10 uM.; set-up: species or system Human alphaherpesvirus 1
T1 sequence (P10210 whole entry): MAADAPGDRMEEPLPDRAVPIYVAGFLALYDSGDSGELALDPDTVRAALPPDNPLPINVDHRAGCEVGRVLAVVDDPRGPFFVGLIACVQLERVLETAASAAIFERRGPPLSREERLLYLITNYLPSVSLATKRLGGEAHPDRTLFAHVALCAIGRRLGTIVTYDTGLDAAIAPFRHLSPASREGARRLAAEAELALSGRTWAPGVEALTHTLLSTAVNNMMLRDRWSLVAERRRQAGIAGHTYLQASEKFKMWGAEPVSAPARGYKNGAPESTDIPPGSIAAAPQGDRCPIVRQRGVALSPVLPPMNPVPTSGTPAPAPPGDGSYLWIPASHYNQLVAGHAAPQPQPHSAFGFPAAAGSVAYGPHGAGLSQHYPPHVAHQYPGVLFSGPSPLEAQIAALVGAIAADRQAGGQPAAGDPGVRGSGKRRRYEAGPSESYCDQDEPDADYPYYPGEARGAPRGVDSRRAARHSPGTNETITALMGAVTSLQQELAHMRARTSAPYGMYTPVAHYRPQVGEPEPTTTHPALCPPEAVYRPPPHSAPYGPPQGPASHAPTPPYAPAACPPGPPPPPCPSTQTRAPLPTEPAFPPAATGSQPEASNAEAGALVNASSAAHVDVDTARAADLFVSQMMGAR

[7] = Tested for peptidolytic activity against subtilisin at a concentration of 1 mM; no inhibition
Cytomegalovirus [8] = assay: Percent inhibition for peptidolytic activity against cytomegalovirus (CMV) protease at 10 uM.; assay type: functional; details: Human betaherpesvirus 5
Human alphaherpesvirus 2 [9] = assay: Percent inhibition for peptidolytic activity against herpes simplex type-2(HSV-2) protease at 10 uM.; assay type: functional

SMILES: Cc1cccc2nc([C@H](C)NC(=O)OCc3ccccc3)oc(=O)c12
- half-life [1]: 33 h
- pIC50 [2]: 6.66
- Ratio [3]: 0.002

SMILES: C[C@H](NC(=O)OCc1ccccc1)c1nc2c(Cl)c(NC(=O)[C@@H](C)NC(=O)OCc3ccccc3)sc2c(=O)o1
- pIC50 (Cytomegalovirus [4]): 5.89
- pIC50 (Human alphaherpesvirus 2 [5]): 5.80

SMILES: C[C@H](NC(=O)OCc1ccccc1)c1nc2ccccc2c(=O)o1
- half-life [1]: 14 h
- pIC50 [2]: 4.35
- Ratio [3]: 1.1

SMILES: C[C@H](NC(=O)OCc1ccccc1)c1nc2cc(-c3ccccc3)sc2c(=O)o1
- pIC50 (Cytomegalovirus [4]): < 3.52
- pIC50 [6]: 5.48

SMILES: C[C@H](NC(=O)OCc1ccccc1)c1nc2ccsc2c(=O)o1
- half-life [1]: > 100 h
- pIC50 (Cytomegalovirus [4]): 5.03
- pIC50 [2]: 3.92
- pIC50 (Human alphaherpesvirus 2 [5]): 6.38
- pIC50 [6]: 6.32
- Ratio [3]: 250
- IC50 [7]: Not Active

SMILES: C[C@H](NC(=O)NCc1ccccc1)c1nc2ccsc2c(=O)o1
- inhibition at 10 µM (Cytomegalovirus [8]): 20%
- inhibition at 10 µM (Human alphaherpesvirus 2 [9]): 1%

SMILES: CC(C)[C@H](NC(=O)OCc1ccccc1)c1nc2ccsc2c(=O)o1
- pIC50 (Cytomegalovirus [4]): 4.59
- pIC50 [6]: 4.51

SMILES: O=C(NCc1nc2ccsc2c(=O)o1)OCc1ccccc1
- pIC50 (Cytomegalovirus [4]): 4.35
- pIC50 [6]: 5.57

SMILES: C[C@H](NC(=O)OCc1ccccc1)C(=O)Nc1csc2c(=O)oc([C@H](C)NC(=O)OCc3ccccc3)nc12
- inhibition at 10 µM (Cytomegalovirus [8]): 43%
- inhibition at 10 µM (Human alphaherpesvirus 2 [9]): 50%

SMILES: Cc1csc2c(=O)oc([C@H](C)NC(=O)OCc3ccccc3)nc12
- pIC50 (Cytomegalovirus [4]): 4.92
- pIC50 [6]: 5.51

SMILES: C[C@H](Nc1ccc([N+](=O)[O-])cc1[N+](=O)[O-])c1nc2ccsc2c(=O)o1
- pIC50 (Cytomegalovirus [4]): 5.48
- pIC50 (Human alphaherpesvirus 2 [5]): 5.54

SMILES: Cc1ccc(S(=O)(=O)N[C@@H](C)c2nc3ccsc3c(=O)o2)cc1
- inhibition at 10 µM (Cytomegalovirus [8]): 30%
- inhibition at 10 µM (Human alphaherpesvirus 2 [9]): 13%

SMILES: C[C@H](NC(=O)OC(C)(C)C)c1nc2ccsc2c(=O)o1
- inhibition at 10 µM (Cytomegalovirus [8]): 15%
- inhibition at 10 µM (Human alphaherpesvirus 2 [9]): 32%

SMILES: NC(=O)C[C@H](NC(=O)OCc1ccccc1)c1nc2ccsc2c(=O)o1
- pIC50 (Cytomegalovirus [4]): 4.74
- pIC50 [6]: 5.00

SMILES: O=C(N[C@@H](CO)c1nc2ccsc2c(=O)o1)OCc1ccccc1
- pIC50 (Cytomegalovirus [4]): 4.70
- pIC50 (Human alphaherpesvirus 2 [5]): 6.48
- pIC50 [6]: 6.19

SMILES: C[C@H](NC(=O)Nc1ccccc1)c1nc2ccsc2c(=O)o1
- pIC50 (Cytomegalovirus [4]): < 4.00
- pIC50 (Human alphaherpesvirus 2 [5]): < 4.00

SMILES: NC(=O)CC[C@H](NC(=O)OCc1ccccc1)c1nc2ccsc2c(=O)o1
- pIC50 [6]: 5.20

SMILES: O=C(N[C@@H](Cc1ccccc1)c1nc2ccsc2c(=O)o1)OCc1ccccc1
- pIC50 (Cytomegalovirus [4]): 5.46
- pIC50 [6]: < 3.52
